These molecules were tested on activity of 200 ng/mL of NGF (NXF promoter-driven luciferase in PC12 cells) (assay: Luciferase reporter assay (NXF promoter) in PC12 cells: potentiation of NGF activity). Conditions: Test Example 1, relative luciferase activity vs 200 ng/mL NGF alone, overnight (approx. 16 hours).
Format: cell-based, rat
Set-up: key: +: Showed relatively weak potentiation (potentiation only exhibited at 10 μM); ++: Showed potentiation; +++: Showed particularly strong potentiation (2-fold or greater potentiation of the activity of 200 ng/mL of NGF at 1 μM)
Experimental: The forward primer 5′-[…]-3′ and the reverse primer 5′-[…]-3′ were prepared as the PCR primers according to the sequence information for the NXF gene genome sequence (Accession Nos. AB054577 and NC—000085), and the PCR method was used to isolate from approximately 5 kbp upstream from the translated region of the NXF gene promoter portion to the vicinity of the transcription start site. For this, 1 μg of mouse genomic DNA (Takara) was used as the template, and the 2-step PCR reaction was carried out for 35 cycles, the conditions for which were 95° C./1 m in the denaturing step, and 68° C./8 m in the annealing and extension steps, to obtain the PCR product. The NXF promoter fragment was inserted into the SmaI site of the pGL3 Basic vector (Promega) in the upstream of luciferase gene to prepare a reporter plasmid that would express the luciferase enzyme driven by the NXF promoter.
PC12 cells (available from the ATCC) were cultured using RPMI medium (GIBCO-BRL) with 5% FCS (GIBCO-BR) and 15% horse serum (GIBCO-BRL) added, and 1 mM in sodium pyruvate (GIBCO-BRL), at 37° C. in the presence of 5% CO2. After transfection in 10^6 of these PC12 cells for 2 days with 12 μg of the above-described reporter plasmid and 1 μg of pRC/RSV vector (Invitrogen) using the Lipofectamine 2000 reagent (Invitrogen), the medium was exchanged for fresh medium containing 40 mg/L of geneticin sulfate (GIBCO), and this was cultured continuously. Culturing was continued for approximately 1 month with medium exchange of the cultured medium containing 40 mg/L of geneticin sulfate (GIBCO) every several days, with the result that multiple colonies of the obtained cells were picked up. Among these, one of the colonies that induced luciferase activity in the presence of 40 ng/mL of NGF (Wako Pure Chemicals) was selected and used for the cells to evaluate the activity of the compounds below.
These cells were set up in 96-well plates with 80% confluence, and the luciferase reporter assay was conducted using the Promega Steady Glo luciferase assay kit. The procedure was carried out overnight (approx. 16 hours) using culture medium containing the compound, and the Steady Glo substrate solution was added to the cells in half-diluted in PBS after removal of all remaining medium containing the compound. After this was allowed to stand for 30 minutes, the respective quantity of light produced was measured with a luminometer (Envision Perkin Elmer).
The activity of the compounds for evaluation was measured as the potentiation of the activity of 200 ng/mL of NGF. For the experiment control wells, the negative control well had medium containing only a final concentration of 0.1% DMSO, the positive control well had medium containing a saturation concentration of NGF. In addition, a test well was set up containing 0.1% DMSO with 200 ng/mL of NGF added corresponding to a 0 compound concentration. When its luciferase activity was taken as a standard, the relative luciferase activity could be calculated for the test wells to which the compound solution (dissolved in DMSO and prepared to have a final DMSO concentration of 0.1%) had been added in addition to the 200 ng/mL of NGF, to find the potentiation of the activity of 200 ng/mL of NGF due to that compound.

| SMILES | Activity (potentiation of NGF activity) |
| --- | --- |
| Cc1nc2cc(-c3nc4ccccc4o3)ccc2n1-c1ccccc1 [Syn. Ex. 3, 5-(benzoxazol-2-yl)-2-methyl-1-phenylbenzimidazole] | ++ |

Same assay, conditions: Test Example 4, same manner as Test Example 1, relative luciferase activity vs 200 ng/mL NGF alone

| SMILES | Activity (potentiation of NGF activity) |
| --- | --- |
| Cc1nc2cc(-c3nc4cc(C(=O)O)ccc4o3)ccc2n1C1CCOCC1 [Ex. 97, 5-(5-carboxylbenzoxazol-2-yl)-2-methyl-1-(tetrahydropyran-4-yl)benzimidazole] | ++ |
| CCCNC(=O)c1ccc2oc(-c3ccc4c(c3)nc(C)n4C3CCOCC3)nc2c1 [Ex. 99, 2-methyl-5-(5-n-propylaminocarbonylbenzoxazol-2-yl)-1-(tetrahydropyran-4-yl)benzimidazole] | ++ |
| CC(=O)NCc1nc2cc(-c3nc4cc(Cl)ccc4o3)ccc2n1C1CCOCC1 [Ex. 104, 2-acetylaminomethyl-5-(5-chlorobenzoxazol-2-yl)-1-(tetrahydropyran-4-yl)benzimidazole] | ++ |
| Cc1nc2cc(-c3nc4ccccc4o3)ccc2n1CC(=O)N1CCOCC1 [Ex. 107] | + |
| Cc1nc2cc(-c3nc4ccccc4o3)ccc2n1CCNC(=O)CCC(=O)O [Ex. 108, 4-oxo-4-(2-(5-(benzoxazol-2-yl)-2-methylbenzimidazol-1-yl)ethyl)aminobutyric acid] | ++ |
| Cc1nc2cc(-c3nc4ccccc4o3)ccc2n1CCNC(=O)C(F)(F)F [Ex. 109, 5-(benzoxazol-2-yl)-2-methyl-1-(2-trifluoroacetylaminoethyl)benzimidazole] | ++ |
| c1ccc2oc(-c3ccc4c(c3)nc(CC3CCOCC3)n4C3CCOCC3)nc2c1 [Ex. 111, 5-(benzoxazol-2-yl)-1-(tetrahydropyran-4-yl)-2-(tetrahydropyran-4-yl)methylbenzimidazole] | ++ |
| Cc1nc2cc(-c3nc4ccccc4o3)c(Cl)cc2n1C1CCOCC1 [Ex. 112, 5-(benzoxazol-2-yl)-2-methyl-1-(tetrahydropyran-4-yl)-6-chlorobenzimidazole] | ++ |
| COC(=O)c1ccc(Cn2c(C)nc3cc(-c4nc5ccccc5o4)ccc32)cc1 [Ex. 113, 5-(benzoxazol-2-yl)-1-(4-methoxycarbonylphenylmethyl)-2-methylbenzimidazole] | ++ |
| Cc1nc2cc(-c3nc4ccccc4o3)ccc2n1Cc1ccc(C(=O)O)cc1 [Ex. 114, 5-(benzoxazol-2-yl)-1-(4-carboxyphenylmethyl)-2-methylbenzimidazole] | ++ |
| COC(=O)c1cccc(Cn2c(C)nc3cc(-c4nc5ccccc5o4)ccc32)c1 [Ex. 117, 5-(benzoxazol-2-yl)-1-(3-methoxycarbonylphenylmethyl)-2-methylbenzimidazole] | ++ |
| CC(=O)OCC(c1ccccc1)n1c(C)nc2cc(-c3nc4ccccc4o3)ccc21 (centres unmarked) [Ex. 118, 5-(1-benzoxazol-2-yl)-1-(1-acetoxy-2-phenylethan-2-yl)-2-methylbenzimidazole] | ++ |
| Cc1nc2cc(-c3nc4ccccc4o3)ccc2n1C(CO)c1ccccc1 (centres unmarked) [Ex. 120, 5-(1-benzoxazol-2-yl)-1-(2-phenylethanol-2-yl)-2-methylbenzimidazole] | ++ |
| Cc1nc2cc(-c3nc4ccccc4o3)ccc2n1CC(C)C(=O)OC(C)(C)C (centres unmarked) [Ex. 121, 5-(benzoxazol-2-yl)-2-methyl-1-(2-tert-butoxycarbonyl-n-propyl)benzimidazole] | ++ |
| Clc1ccccc1-c1nc2cc(-c3nc4ccccc4o3)ccc2n1C1CCOCC1 [Ex. 126, 5-(benzoxazol-2-yl)-2-(2-chlorophenyl)-1-(tetrahydropyran-4-yl)benzimidazole] | ++ |
| Cc1nc2cc(-c3nc4ccccc4o3)ccc2n1CCN(C)C [Ex. 130] | ++ |
| Cc1nc2cc(-c3nc4ccccc4o3)ccc2n1CCS(C)(=O)=O [Ex. 132, 5-(benzoxazol-2-yl)-1-(2-(methylsulfonyl)ethyl)-2-methylbenzimidazole] | ++ |
| CSCCc1nc2cc(-c3nc4ccccc4o3)ccc2n1C1CCOCC1 [Ex. 133, 5-(benzoxazol-2-yl)-2-(2-(methylthio)ethyl)-1-(tetrahydropyran-4-yl)benzimidazole] | ++ |
| CS(=O)(=O)CCc1nc2cc(-c3nc4ccccc4o3)ccc2n1C1CCOCC1 [Ex. 134, 5-(benzoxazol-2-yl)-2-(2-(methylsulfonyl)ethyl)-1-(tetrahydropyran-4-yl)benzimidazole] | ++ |
| CCCn1cnc2cc(-c3nc4cc(Cl)ccc4o3)ccc21 [Ex. 135, 5-(5-chlorobenzoxazol-2-yl)-1-n-propylbenzimidazole] | ++ |

The molecules below were run on middle cerebral artery occlusion/reperfusion model (assay: Middle cerebral artery occlusion/reperfusion model, infarct volume). Conditions: mice, 90 minutes occlusion; 30 mg/kg via the caudate vein at 3, 24 and 48 hours after occlusion; brains taken 3 days after occlusion/reperfusion.
Format: in vivo, C57BL/6J mice
Experimental: A middle cerebral artery occlusion/reperfusion model was prepared by taking 8-week male C57BL/6J mice after 12 days convention rearing, and ligating the left and external common carotid arteries, then recanalizing them after the middle cerebral artery had been occluded for a period of 90 minutes. In this model, the compounds were administered at 3, 24, and 48 hours after occlusion as 30 mg/kg via the caudate vein. The animals were decapitated 3 days after the occlusion/reperfusion, the skulls were cut open from the cerebellar side and the brain was extracted. The extracted brains were fixed with Bouin's solution (pH 3.5-4.0). […] The infarct volumes were then calculated as shown below.
Optical microscope: digital images were taken using an optical microscope (object lens×1) that was fitted with a camera (MCD-350, Olympus). […] Based on the images pasted into the page mounts, the infarct areas (S, mm^2), lateral (left) infarct areas (mm^2) and lateral (right) non-infarct areas (MR, mm^2) were measured using an image analysis system (Win ROOF v. 5.6, Mitani), and the non-infarct areas for the left-side infarcts (ML, mm^2) [lateral (left) infarct area (mm^2)−infarct area (mm^2)] were calculated.
Using the equations below, the infarct volumes (SV, mm^3), non-infarct volumes for the left-side infarcts (MLV, mm^3), and the lateral (right) non-infarct volumes (MRV, mm^3) were calculated. […]

| SMILES | infarct volume |
| --- | --- |
| Cc1nc2cc(-c3nc4ccccc4o3)ccc2n1C1CCOCC1 [Ex. 12, 5-(benzoxazol-2-yl)-2-methyl-1-(tetrahydropyran-4-yl)benzimidazole methanesulfonate] | reductions in the infarct volumes were confirmed |

These molecules were tested on rats with streptozotocin-induced diabetes (assay: Motor nerve conduction velocity (MNCV) in sciatic nerves of rats with streptozotocin-induced diabetes). Conditions: 5 mL/kg of 10 mg/mL drug solution orally once per day for 4 weeks, compared to solvent administration control group.
Format: in vivo, Slc:Wistar rats
Experimental: The preventative effect of the compounds on the prolongation of latency of the motor nerve conduction velocity (MNCV) were studied in the sciatic nerves of rats with streptozotocin-induced diabetes.
The groups were structured as a non-diabetes control group, a diabetes control group, and a drug administration group. After 8 days of convention rearing, the 8-week male Slc:Wistar rats in the respective groups were given 2 mL/kg of pH 4.5, 0.75 mmol/L citrate buffer solution (non-diabetes control group), or 2 mL/kg of a solution prepared from […] of streptozotocin (chemical name: N-(methylnitrosocarbamoyl)-α-D-glucosamine; manufacturer: SIGMA) in 0.75 mmol/L citrate buffer solution (diabetes control group and drug administration group), single administration in the caudate vein. After 4 more weeks of rearing, the animals in the non-diabetes control group and the diabetes control group were given 5 mL/kg of water for injection, while the animals in the drug administration group were given 5 mL/kg of a drug solution prepared from 10 mg/mL of the drug in water for injection. Administration for all groups was orally once per day for 4 weeks. MNCV measurements were carried out 3 times for each group. […]

| SMILES | motor nerve conduction velocity (MNCV) |
| --- | --- |
| Cc1nc2cc(-c3nc4ccccc4o3)ccc2n1C1CCOCC1 [Ex. 12, 5-(benzoxazol-2-yl)-2-methyl-1-(tetrahydropyran-4-yl)benzimidazole methanesulfonate] | recovery of motor nerve conduction velocity was observed |

From patent US8829035B2, “Agent for treatment or prevention of diseases associated with activity of neurotrophic factors” (Sumitomo Chemical Company, Limited, priority 2009, dated 2014)
